Measured values from patent US8420657B2 (Novartis AG, priority 2008, dated 2013).

Key:
[1] = biological target: T1, GST-JAK2(808-1132) (Homo sapiens, UniProt O60674); test: JAK2 kinase assay (Caliper mobility shift, LabChip 3000); assay type: biochemical
T1 construct: GST-JAK2(808-1132); purchased Invitrogen (Carlsbad, USA) #4288
Procedure, shortened: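 Eight-point compound series (final 10–0.003 μM) tested on purchased GST-JAK2 kinase domain (808-1132). Peptide FITC-JAK3tide plus ATP reacted 60 min, 30 °C, then quenched with EDTA; turnover from charge-based separation of substrate and product.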

[2] = tested on: JAK1/JAK2-dependent nuclear translocation of STAT1-GFP in HT1080 fibrosarcoma cells; test: STAT1 nuclear translocation assay (Cellomics), IFN-γ stimulated HT1080 STAT1-GFP cells; assay type: cell-based
Procedure, shortened: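 IC50 derived from percent nuclear STAT1-GFP translocation, computed from nuclear minus cytoplasmic GFP intensity against untreated baseline and DMSO-stimulated control. Stable HT1080 STAT1-GFP cells received compound (0.003–10 μM, 0.1% DMSO) 30 min ahead of a 2 h 100 ng/ml IFN-γ stimulus, then fixation and Hoechst nuclear masking.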

[3] = Homo sapiens, HT-1080, STAT1 translocation pathway

T1 sequence (O60674 808-1132): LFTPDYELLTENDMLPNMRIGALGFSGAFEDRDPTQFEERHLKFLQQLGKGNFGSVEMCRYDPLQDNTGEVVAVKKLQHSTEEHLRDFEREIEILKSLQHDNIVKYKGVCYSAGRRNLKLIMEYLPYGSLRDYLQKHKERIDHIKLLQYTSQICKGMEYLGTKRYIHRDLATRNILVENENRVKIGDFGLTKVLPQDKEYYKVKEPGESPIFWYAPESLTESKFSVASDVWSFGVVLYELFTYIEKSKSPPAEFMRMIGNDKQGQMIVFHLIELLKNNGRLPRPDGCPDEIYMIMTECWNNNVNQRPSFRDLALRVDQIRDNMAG

SMILES	IC50 [1] [nM]	IC50 [2, 3] [nM]	IC50 ([2]; STAT1 translocation pathway) [nM]
O=C(Cc1ccc(-n2ccc3cnc(Nc4ccc(C(F)(F)F)cc4)nc32)cc1)N1CCOCC1 [Example 144, 1-Morpholin-4-yl-2-{4-[2-(4-trifluoromethyl-phenylamino)-pyrrolo[2,3-d]pyrimidin-7-yl]-phenyl}-ethanone]	4.7	475	–
CC(C)Oc1ccc(Nc2ncc3ccn(-c4ccc(S(C)(=O)=O)cc4)c3n2)cc1 [Example 3, (4-Isopropoxy-phenyl)-[7-(4-methanesulfonyl-phenyl)-7H-pyrrolo[2.3-d]pyrimidin-2-yl]-amine]	9.4	–	98.5
Cc1ccc(Nc2ncc3ccn(-c4ccc(C(=O)N5CCOCC5)cc4)c3n2)cc1C [Example 169, {4-[2-(3,4-Dimethyl-phenylamino)-pyrrolo[2,3-d]pyrimidin-7-yl]-phenyl}-morpholin-4-yl-methanone]	4.3	93	–
CC(C)Oc1ccc(Nc2ncc3ccn(-c4ccc(C(=O)N5CCOCC5)c(Cl)c4)c3n2)cc1 [Example 99, {2-Chloro-4-[2-(4-isopropoxy-phenylamino)-pyrrolo[2,3-d]pyrimidin-7-yl]-phenyl}-morpholin-4-yl-methanone]	3.9	555	–
Cc1ccc(Nc2ncc3ccn(-c4cc(F)c(C(=O)N5CCOCC5)c(F)c4)c3n2)cc1Cl [Example 116, {4-[2-(3-Chloro-4-methyl-phenylamino)-pyrrolo[2,3-d]pyrimidin-7-yl]-2,6-difluoro-phenyl}-morpholin-4-yl-methanone]	12.5	563	–
COc1ccc(Nc2ncc3ccn(-c4ccc(S(C)(=O)=O)cc4)c3n2)cc1OCCCN(C)C [Example 27, [3-(3-Dimethylamino-propoxy)-4-methoxy-phenyl]-[7-(4-methanesulfonyl-phenyl)-7H-pyrrolo[2,3-d]pyrimidin-2-yl]-amine]	< 3	85	–
Cc1ccc(Nc2ncc3ccn(-c4ccc(C5(C(=O)N6CCN(C)CC6)CC5)cc4)c3n2)cc1Cl [Example 117, (1-{4-[2-(3-Chloro-4-methyl-phenylamino)-pyrrolo[2,3-d]pyrimidin-7-yl]-phenyl}-cyclopropyl)-(4-methyl-piperazin-1-yl)-methanone]	9.4	384	–
Cc1ccc(Nc2ncc3ccn(-c4ccc(CN5CCOCC5)cc4)c3n2)cc1Cl [Example 119, (3-Chloro-4-methyl-phenyl)-[7-(4-morpholin-4-ylmethyl-phenyl)-7H-pyrrolo[2,3-d]pyrimidin-2-yl]-amine]	88	1760	–
CC(C)Oc1ccc(Nc2ncc3ccn(-c4ccc(CN5CCOCC5)c(F)c4)c3n2)cc1 [Example 97, [7-(3-Fluoro-4-morpholin-4-ylmethyl-phenyl)-7H-pyrrolo[2,3-d]pyrimidin-2-yl]-(4-isopropoxy-phenyl)-amine]	9.4	1460	–
CS(=O)(=O)c1ccc(-n2ccc3cnc(Nc4ccc(CN5CCS(=O)(=O)CC5)cc4)nc32)cc1 [Example 64, [4-(1,1-Dioxido-thiomorpholin-4-ylmethyl)-phenyl]-[7-(4-methanesulfonyl-phenyl)-7H-pyrrolo[2,3-d]pyrimidin-2-yl]-amine]	< 3	40	–
CS(=O)(=O)c1ccc(-n2ccc3cnc(Nc4ccc(C(=O)N5CCOCC5)cc4)nc32)cc1 [Example 30, {4-[7-(4-Methanesulfonyl-phenyl)-7H-pyrrolo[2,3-d]pyrimidin-2-ylamino]-phenyl}-morpholin-4-yl-methanone]	< 3	204	–
CCN(CC)C(=O)N1CCN(c2ccc(Nc3ncc4ccn(-c5ccc(S(C)(=O)=O)cc5)c4n3)cc2)CC1 [Example 13, 4-{4-[7-(4-Methanesulfonyl-phenyl)-7H-pyrrolo[2,3-d]pyrimidin-2-ylamino]-phenyl}-piperazine-1-carboxylic acid diethylamide]	3.8	32	–
Cc1ccc(Nc2ncc3ccn(-c4ccc(CC(=O)N5CCN(C)CC5)cc4)c3n2)cc1 [Example 149, 1-(4-Methyl-piperazin-1-yl)-2-[4-(2-p-tolylamino-pyrrolo[2,3-d]pyrimidin-7-yl)-phenyl]-ethanone]	130	1510	–
Cc1cc(Nc2ncc3ccn(-c4ccc(C(=O)N5CCOCC5)c(Cl)c4)c3n2)ccc1F [Example 90, {2-Chloro-4-[2-(4-fluoro-3-methyl-phenylamino)-pyrrolo[2,3-d]pyrimidin-7-yl]-phenyl}-morpholin-4-yl-methanone]	3.4	715	–
Cc1cc(Nc2ncc3ccn(-c4cc(F)c(CN5CCS(=O)(=O)CC5)c(F)c4)c3n2)ccc1F [Example 137, {7-[4-(1,1-Dioxido-thiomorpholin-4-ylmethyl)-3,5-difluoro-phenyl]-7H-pyrrolo[2,3-d]pyrimidin-2-yl}-(4-fluoro-3-methyl-phenyl)-amin]	3.3	150	–

Second part, the compound after the results:

IC50 [1] [nM]	IC50 [2, 3] [nM]	IC50 ([2]; STAT1 translocation pathway) [nM]	SMILES
< 3	225	–	CN1CCN(c2cc(Nc3ncc4ccn(-c5cc(F)c(C(=O)N6CCOCC6)c(F)c5)c4n3)ccn2)CC1 [Example 243, (2,6-Difluoro-4-{2-[2-(4-methyl-piperazin-1-yl)-pyridin-4-ylamino]-pyrrolo[2,3-d]pyrimidin-7-yl}-phenyl)-morpholin-4-yl-methanone]
11	880	–	COc1ccc(Nc2ncc3ccn(-c4cc(F)c(C(=O)N5CCOCC5)c(F)c4)c3n2)cn1 [Example 220]
7.3	1550	–	COCc1ccc(Nc2ncc3ccn(-c4ccc(CN5CCOCC5)c(Cl)c4)c3n2)cc1 [Example 176, [7-(3-Chloro-4-morpholin-4-yl methyl-phenyl)-7H-pyrrolo[2,3-d]pyrimidin-2-yl]-(4-methoxymethyl-phenyl)-amine]
3.3	340	–	COCCn1cc(Nc2ncc3ccn(-c4cc(F)c(CN5CCOCC5)c(F)c4)c3n2)cn1 [Example 252, [7-(3,5-Difluoro-4-morpholin-4-ylmethyl-phenyl)-7H-pyrrolo[2,3-d]pyrimidin-2-yl]-[1-(2-methoxy-ethyl)-1H-pyrazol-4-yl]-amine]
4.8	442	–	Fc1cc(-n2ccc3cnc(Nc4ccccc4)nc32)cc(F)c1CN1CCOCC1 [Example 208, [7-(3,5-Difluoro-4-morpholin-4-ylmethyl-phenyl)-7H-pyrrolo[2,3-d]pyrimidin-2-yl]-phenyl-amine]
28	4000	–	O=C(c1c(F)cc(-n2ccc3cnc(Nc4nccs4)nc32)cc1F)N1CCOCC1 [Example 246, {2,6-Difluoro-4-[2-(thiazol-2-ylamino)-pyrrolo[2,3-d]pyrimidin-7-yl]-phenyl}-morpholin-4-yl-methanone]
≤ 3	45	–	C[C@@H]1CN(c2ccc(Nc3ncc4ccn(-c5cc(F)c(CN6CCS(=O)(=O)CC6)c(F)c5)c4n3)cn2)C[C@H](C)N1 [Example 441, [6-(cis-3,5-Dimethyl-piperazin-1-yl)-pyridin-3-yl]-{7-[4-(1,1-dioxido-thiomorpholin-4-ylmethyl)-3,5-difluoro-phenyl]-7H-pyrrolo[2,3-d]pyrimidin-2-yl}-amine]
< 3	260	–	CCN1CCN(C(=O)c2ccc(Nc3ncc4ccn(-c5cc(F)c(CN6CCOCC6)c(F)c5)c4n3)cc2)CC1 [Example 171, {4-[7-(3,5-Difluoro-4-morpholin-4-ylmethyl-phenyl)-7H-pyrrolo[2,3-d]pyrimidin-2-ylamino]-phenyl}-(4-ethyl-piperazin-1-yl)-methanone]
≤ 3	479	–	C[C@@H]1CN(c2ccc(Nc3ncc4ccn(-c5cc(F)c(CN6CCNC(=O)C6)c(F)c5)c4n3)cn2)C[C@H](C)N1 [Example 342, 4-(4-{2-[6-(cis-3,5-Dimethyl-piperazin-1-yl)-pyridin-3-ylamino]-pyrrolo[2,3-d]pyrimidin-7-yl}-2,6-difluoro-benzyl)-piperazin-2-one]
< 3	95	–	CN1CCN(C(=O)c2ccc(Nc3ncc4ccn(-c5cc(F)c(CN6CCS(=O)(=O)CC6)c(F)c5)c4n3)cc2C(F)(F)F)CC1 [Example 186, (4-{7-[4-(1,1-Dioxido-thiomorpholin-4-ylmethyl)-3,5-difluoro-phenyl]-7H-pyrrolo[2,3-d]pyrimidin-2-ylamino}-2-trifluoromethyl-phenyl)-(4-methyl-piperazin-1-yl)-methanone]
9.5	846	–	COCc1ccc(Nc2ncc3ccn(-c4cc(F)c(C(=O)N5CCN(C)CC5)c(F)c4)c3n2)cc1 [Example 189, {2,6-Difluoro-4-[2-(4-methoxymethyl-phenylamino)-pyrrolo[2,3-d]pyrimidin-7-yl]-phenyl}-(4-methyl-piperazin-1-yl)-methanone]
420	10000	–	O=C(c1c(F)cc(-n2ccc3cnc(Nc4ccccn4)nc32)cc1F)N1CCOCC1 [Example 215, {2,6-Difluoro-4-[2-(pyridin-2-ylamino)-pyrrolo[2,3-d]pyrimidin-7-yl]-phenyl}-morpholin-4-yl-methanone]
18.5	145	–	Cc1ccc(Nc2ncc3ccn(-c4ccc(C(=O)N5CCC(N(C)C)CC5)c(F)c4)c3n2)cc1C [Example 299, (4-Dimethylamino-piperidin-1-yl)-{4-[2-(3,4-dimethyl-phenylamino)-pyrrolo[2,3-d]pyrimidin-7-yl]-2-fluoro-phenyl}-methanone]
39.5	550	–	Cc1ccc(Nc2ncc3ccn(-c4cc(F)c(CN5CCN(C6CC6)CC5)c(F)c4)c3n2)cc1C [Example 306, {7-[4-(4-Cyclopropyl-piperazin-1-yl methyl)-3,5-difluoro-phenyl]-7H-pyrrolo[2,3-d]pyrimidin-2-yl}-(3,4-dimethyl-phenyl)-amine]
